Laboratory results as given in publication PMC2994747, “Molecular Characterization of c-Abl/c-Src Kinase Inhibitors Targeted against Murine Tumour Progenitor Cells that Express Stem Cell Markers” (PLoS ONE, 2010).

What was measured:
A2C12 = test: Whole genome expression analysis (Affymetrix microarray); format: cell-based, mouse
Procedure: (§1) The cells were harvested and RNA was isolated using RNeasy Mini Kit (Qiagen, Hilden, Germany) according to the instructions of the manufacturer. The isolated RNA (250 ng) was processed further using standard protocols as described recently with the exception of the 3′ IVT Express Kit (Affymetrix, High Wycombe, UK) that was utilized according to instructions. Quality control of cRNA was done with the Agilent 2100 Bioanalyzer (Agilent Tech according to manufacturer's protocols. Following fragmentation, cRNA of each sample was hybridized to Affymetrix GeneChip® Mouse Genome 430 2.0 or Human Genome U133 Plus 2.0 and scanned with an Affymetrix 3000 7G scanner.
(§2) The resultant data was normalized by Probe Logarithmic Intensity Error Estimation (PLIER) algorithm. Statistical analysis was carried out with the ArrayTrack software (National Center for Toxicological Research/FDA, Jefferson, AR, USA) using SAM algorithm.

GammaA3 = test: as above; format: cell-based, mouse
Procedure: as §1, §2

c-Src = target: T1, c-Src (Homo sapiens, UniProt P12931); test: Src filter-binding kinase assay (Src Assay Kit); format: biochemical; conditions: isolated Src; calculated from ID50, ATP-competitive; E0 0.005, S0 0.012 µM
T1 construct: His tag; purchased Upstate (Lake Placid, NY, USA)
Procedure: (§3) Baculovirus-produced recombinant purified his-tagged active against human Src and Abl were purchased from Upstate (Lake Placid, NY, USA).
(§4) Src activity was measured in a filter-binding assay using the Src Assay Kit (Upstate, Lake Placid, NY, USA), according to the manufacturer's protocol, using the specific Src peptide substrate [[…]] in the presence of 0.125 pmol of Src and 0.160 pmol of [γ-^32P]ATP. Abl activity was measured in a filter-binding assay using an Abl specific peptide substrate (Abtide, Upstate). Reaction conditions were (in a final volume of 10 µl): 25 mM Tris-HCl pH 7.5, 1 mM DTT, 0.012 µM [γ-^32P]ATP, 0.022 µM c-Abl. Reactions were incubated 10 min at 30°C.The samples (9 µl) were spotted on paper cellulose filters which were washed according to the manufacturer's protocol. Filter-bound radioactivity was measured by liquid scintillation with a Microbeta-Trilux apparatus (PerkinElmer, Waltham, MA, USA).
(§5) The ID50 were converted to Ki according to a competitive mechanism with respect to the substrate ATP. […] Since (i) the ATP concentration was limiting, i.e., [ATP], Km(ATP), and (ii) the enzyme concentration was not negligible with respect to the ATP concentration, the classical Cheng-Prusoff relationship was not applicable. Consequently, Ki values were calculated according to [drawing 3] (2) where S0 is the concentration of the competing substrate (ATP) and E0 is the concentration of the enzyme. Each experiment was done in triplicate and mean values were used for the interpolation. Curve fitting was performed with the program GraphPad Prism.

[1] = tested on: murine and human cell lines; test: Whole genome expression analysis, statements over several cell lines; format: cell-based
Procedure: as §1, §2

c-Abl = target: T2, c-Abl (Homo sapiens, UniProt P00519); test: Abl filter-binding kinase assay (Abtide, [γ-32P]ATP); format: biochemical; conditions: isolated Abl; calculated from ID50, ATP-competitive; E0 0.005, S0 0.012 µM
T2 construct: His tag; purchased Upstate (Lake Placid, NY, USA)
Procedure: as §3, §4, §5

[2] = IC50 concentration, 96 h, SAM FDR<0.01, FC>2

T1 sequence (P12931 whole entry): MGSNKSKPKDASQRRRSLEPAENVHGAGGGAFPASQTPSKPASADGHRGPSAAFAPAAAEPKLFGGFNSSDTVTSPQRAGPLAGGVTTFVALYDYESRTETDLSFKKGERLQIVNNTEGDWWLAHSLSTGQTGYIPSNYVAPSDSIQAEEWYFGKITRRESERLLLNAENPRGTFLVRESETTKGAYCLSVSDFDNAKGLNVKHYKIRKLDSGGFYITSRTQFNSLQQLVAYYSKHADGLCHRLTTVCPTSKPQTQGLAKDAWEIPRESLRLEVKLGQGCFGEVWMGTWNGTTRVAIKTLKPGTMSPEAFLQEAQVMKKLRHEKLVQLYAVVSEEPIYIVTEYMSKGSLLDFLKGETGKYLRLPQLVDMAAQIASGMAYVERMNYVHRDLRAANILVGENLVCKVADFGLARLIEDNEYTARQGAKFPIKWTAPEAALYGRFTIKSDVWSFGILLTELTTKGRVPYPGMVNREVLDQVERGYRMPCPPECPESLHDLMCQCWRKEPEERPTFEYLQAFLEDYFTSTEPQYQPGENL
T2 sequence (P00519 whole entry): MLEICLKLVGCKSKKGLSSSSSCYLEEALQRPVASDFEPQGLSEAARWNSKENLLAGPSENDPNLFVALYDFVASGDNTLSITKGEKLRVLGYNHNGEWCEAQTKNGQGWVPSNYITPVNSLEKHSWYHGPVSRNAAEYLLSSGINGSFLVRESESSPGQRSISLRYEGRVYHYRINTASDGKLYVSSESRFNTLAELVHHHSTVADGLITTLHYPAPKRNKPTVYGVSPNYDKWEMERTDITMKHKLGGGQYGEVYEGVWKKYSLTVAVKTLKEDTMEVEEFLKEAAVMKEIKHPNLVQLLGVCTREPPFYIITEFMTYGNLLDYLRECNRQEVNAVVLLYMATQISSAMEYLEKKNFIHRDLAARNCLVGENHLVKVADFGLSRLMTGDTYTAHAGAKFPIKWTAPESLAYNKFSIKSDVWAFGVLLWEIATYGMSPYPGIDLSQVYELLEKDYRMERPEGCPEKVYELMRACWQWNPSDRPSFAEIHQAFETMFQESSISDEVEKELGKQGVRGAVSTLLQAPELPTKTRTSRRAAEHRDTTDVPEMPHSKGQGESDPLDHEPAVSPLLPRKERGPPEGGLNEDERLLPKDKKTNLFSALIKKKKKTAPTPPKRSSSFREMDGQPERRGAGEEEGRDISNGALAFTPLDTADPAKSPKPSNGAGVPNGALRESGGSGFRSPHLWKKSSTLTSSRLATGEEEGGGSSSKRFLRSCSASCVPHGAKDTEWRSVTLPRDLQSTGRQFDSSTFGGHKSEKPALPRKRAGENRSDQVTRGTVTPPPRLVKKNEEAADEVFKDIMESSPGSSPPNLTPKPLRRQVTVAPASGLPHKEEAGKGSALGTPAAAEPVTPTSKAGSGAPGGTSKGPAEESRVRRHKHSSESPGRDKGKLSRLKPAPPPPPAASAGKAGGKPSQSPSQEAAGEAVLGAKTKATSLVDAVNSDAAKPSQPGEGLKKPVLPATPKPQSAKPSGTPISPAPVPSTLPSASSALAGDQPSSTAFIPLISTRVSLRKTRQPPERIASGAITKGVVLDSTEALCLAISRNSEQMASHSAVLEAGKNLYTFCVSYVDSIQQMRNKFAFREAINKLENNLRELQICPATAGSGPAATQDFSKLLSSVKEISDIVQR

Fc1ccccc1CNc1ncnc2c1cnn2CC(Cl)c1ccc(Br)cc1 (centres unmarked) [Si162]
Actg2 (actin, gamma 2, smooth muscle, enteric) regulated gene, Si162 vs Ktr FC (A2C12): -4.94
Ccl5 (chemokine (C-C motif) ligand 5) regulated gene, Si162 vs Ktr FC (A2C12): 2.52
Ccna2 (cyclin A2) regulated gene, Si162 vs Ktr FC (A2C12): -4.48
Ccnb2 (cyclin B2) regulated gene, Si162 vs Ktr FC (A2C12): -4.51
Cenpa (centromere protein A) regulated gene, Si162 vs Ktr FC (A2C12): -4.34
Ctsb (cathepsin B) regulated gene, Si162 vs Ktr FC (A2C12): 1.13
Cxcl12 (chemokine (C-X-C motif) ligand 12) regulated gene, Si162 vs Ktr FC (A2C12): -1.05
Errfi1 (ERBB receptor feedback inhibitor 1) regulated gene, Si162 vs Ktr FC (A2C12): -4.38
Gadd45a (growth arrest and DNA-damage-inducible, alpha) regulated gene, Si162 vs Ktr FC (A2C12): 1.40
Itga5 (integrin, alpha 5 (fibronectin receptor, alpha polypeptide)) regulated gene, Si162 vs Ktr FC (A2C12): -4.81
Mdm2 (Mdm2 p53 binding protein homolog (mouse)) regulated gene, Si162 vs Ktr FC (A2C12): 1.88
Mmp3 (matrix metallopeptidase 3 (stromelysin 1, progelatinase)) regulated gene, Si162 vs Ktr FC (A2C12): 3.28
Mmp13 (matrix metallopeptidase 13 (collagenase 3)) regulated gene, Si162 vs Ktr FC (A2C12): 3.90
Nfib (nuclear factor I/B) regulated gene, Si162 vs Ktr FC (A2C12): -4.56
Ogn (osteoglycin) regulated gene, Si162 vs Ktr FC (A2C12): -5.77
Pdgfrb (platelet-derived growth factor receptor, beta polypeptide) regulated gene, Si162 vs Ktr FC (A2C12): -4.68
Plk1 (polo-like kinase 1 (Drosophila)) regulated gene, Si162 vs Ktr FC (A2C12): -4.48
Ptn (pleiotrophin) regulated gene, Si162 vs Ktr FC (A2C12): -4.92
Sfrp1 (secreted frizzled-related protein 1) regulated gene, Si162 vs Ktr FC (A2C12): 1.12
Spp1 (secreted phosphoprotein 1) regulated gene, Si162 vs Ktr FC (A2C12): 1.21
Srf (serum response factor) regulated gene, Si162 vs Ktr FC (A2C12): -4.68
Tgfb1i1 (transforming growth factor beta 1 induced transcript 1) regulated gene, Si162 vs Ktr FC (A2C12): -4.59
Tgfb3 (transforming growth factor, beta 3) regulated gene, Si162 vs Ktr FC (A2C12): -4.49
Tlr4 (toll-like receptor 4) regulated gene, Si162 vs Ktr FC (A2C12): 1.09
Tnc (tenascin C) regulated gene, Si162 vs Ktr FC (A2C12): -5.20
Tp53 (tumor protein p53) regulated gene, Si162 vs Ktr FC (A2C12): -4.50
Zyx (zyxin) regulated gene, Si162 vs Ktr FC (A2C12): -5.47
Significantly regulated genes, total (number) (A2C12; IC50 concentration, 96 h): > 500
Significantly differentially regulated genes, downregulated (number) (A2C12; [2]): 212
Significantly differentially regulated genes, upregulated (number) (A2C12; [2]): 357
Actg2 (actin, gamma 2, smooth muscle, enteric) regulated gene, Si162 vs Ktr FC (GammaA3): -4.78
Bcl2l11 (BCL2-like 11 (apoptosis facilitator) (Bim)) regulated gene, Si162 vs Ktr FC (GammaA3): 1.33
Birc5 (baculoviral IAP repeat-containing 5) regulated gene, Si162 vs Ktr FC (GammaA3): -3.04
Capn5 (calpain 5) regulated gene, Si162 vs Ktr FC (GammaA3): 1.96
Casp6 (caspase 6, apoptosis-related cysteine peptidase) regulated gene, Si162 vs Ktr FC (GammaA3): 1.07
Ccna2 (cyclin A2) regulated gene, Si162 vs Ktr FC (GammaA3): -2.93
Ccnb2 (cyclin B2) regulated gene, Si162 vs Ktr FC (GammaA3): -2.44
Cdc2 (cell division cycle 2 (Cdk1)) regulated gene, Si162 vs Ktr FC (GammaA3): -2.12
Cdkn1a (cyclin-dependent kinase inhibitor 1A (p21Cip1)) regulated gene, Si162 vs Ktr FC (GammaA3): 1.27
Cdkn2b (cyclin-dependent kinase inhibitor 2B (p15)) regulated gene, Si162 vs Ktr FC (GammaA3): 1.13
Cdkn3 (cyclin-dependent kinase inhibitor 3) regulated gene, Si162 vs Ktr FC (GammaA3): -2.80
Cenpa (centromere protein A) regulated gene, Si162 vs Ktr FC (GammaA3): -2.62
Crk (v-crk sarcoma virus CT10 oncogene homolog (avian)) regulated gene, Si162 vs Ktr FC (GammaA3): -2.00
Ctnnb1 (catenin (cadherin-associated protein), beta 1, 88kDa) regulated gene, Si162 vs Ktr FC (GammaA3): 1.94
Ctsb (cathepsin B) regulated gene, Si162 vs Ktr FC (GammaA3): 1.20
Cxcl12 (chemokine (C-X-C motif) ligand 12) regulated gene, Si162 vs Ktr FC (GammaA3): -2.74
Dgka (diacylglycerol kinase, alpha 80kDa) regulated gene, Si162 vs Ktr FC (GammaA3): 2.90
Fas (Fas (TNF receptor superfamily, member 6)) regulated gene, Si162 vs Ktr FC (GammaA3): 1.40
Gadd45a (growth arrest and DNA-damage-inducible, alpha) regulated gene, Si162 vs Ktr FC (GammaA3): 2.78
Grb10 (growth factor receptor-bound protein 10) regulated gene, Si162 vs Ktr FC (GammaA3): 3.65
Gsk3b (glycogen synthase kinase 3 beta) regulated gene, Si162 vs Ktr FC (GammaA3): 1.12
Itga6 (integrin, alpha 6) regulated gene, Si162 vs Ktr FC (GammaA3): 4.04
Jakmip3 (janus kinase and microtubule interacting protein 3) regulated gene, Si162 vs Ktr FC (GammaA3): 4.07
Lrdd (leucine-rich repeats and death domain containing (Pidd)) regulated gene, Si162 vs Ktr FC (GammaA3): 1.03
Mdm2 (Mdm2 p53 binding protein homolog (mouse)) regulated gene, Si162 vs Ktr FC (GammaA3): 2.15
Mmp3 (matrix metallopeptidase 3 (stromelysin 1, progelatinase)) regulated gene, Si162 vs Ktr FC (GammaA3): 2.73
Mmp13 (matrix metallopeptidase 13 (collagenase 3)) regulated gene, Si162 vs Ktr FC (GammaA3): 2.98
Nfib (nuclear factor I/B) regulated gene, Si162 vs Ktr FC (GammaA3): -1.23
Notch3 (Notch homolog 3 (Drosophila)) regulated gene, Si162 vs Ktr FC (GammaA3): 2.78
Ogn (osteoglycin) regulated gene, Si162 vs Ktr FC (GammaA3): -5.01
Perp (PERP, TP53 apoptosis effector) regulated gene, Si162 vs Ktr FC (GammaA3): 6.09
Pik3ca (phosphoinositide-3-kinase, catalytic, alpha polypeptide) regulated gene, Si162 vs Ktr FC (GammaA3): 1.27
Plcg2 (phospholipase C, gamma 2) regulated gene, Si162 vs Ktr FC (GammaA3): 1.36
Plk1 (polo-like kinase 1 (Drosophila)) regulated gene, Si162 vs Ktr FC (GammaA3): -3.17
Pmaip1 (phorbol-12-myristate-13-acetate-induced protein 1 (Noxa)) regulated gene, Si162 vs Ktr FC (GammaA3): 1.94
Ptk2 (PTK2 protein tyrosine kinase 2 (FAK)) regulated gene, Si162 vs Ktr FC (GammaA3): 1.99
Rock1 (Rho-associated, coiled-coil containing protein kinase 1) regulated gene, Si162 vs Ktr FC (GammaA3): 1.14
Spp1 (secreted phosphoprotein 1) regulated gene, Si162 vs Ktr FC (GammaA3): 1.01
Srf (serum response factor) regulated gene, Si162 vs Ktr FC (GammaA3): -1.12
Tec (tec protein tyrosine kinase) regulated gene, Si162 vs Ktr FC (GammaA3): 3.51
Tgfb2 (transforming growth factor, beta 2) regulated gene, Si162 vs Ktr FC (GammaA3): -1.69
Tnc (tenascin C) regulated gene, Si162 vs Ktr FC (GammaA3): -1.32
Zyx (zyxin) regulated gene, Si162 vs Ktr FC (GammaA3): -1.59
Significantly regulated genes, total (number) (GammaA3; IC50 concentration, 96 h): more than 3500
Significantly differentially regulated genes, downregulated (number) (GammaA3; [2]): 1139
Significantly differentially regulated genes, upregulated (number) (GammaA3; [2]): 2453
Ki (c-Src): 42 nM
Commonly regulated genes in both murine cell lines (number) ([1]; A2C12 and GammaA3, Fig. 4D): 259
Genes regulated in common amongst all three human cell lines (number) ([1]; A549, CaCo2, HepG2, Fig. 4B): two
Ki (c-Abl): 444 nM
